Results published in patent US10092648B2, “Selective glucagon-like-peptide-2 (GLP-2) analogues” (Zealand Pharma A/S, priority 2006, dated 2018).

Legend:
male C57BL mice [1] = assay: In vivo stimulation of intestinal growth, 200 nmol/kg (Example 11); conditions: for Sensitivity index Si/Colon: relative to 1559
Experimental: The ability of further compounds to selectively stimulate small intestinal mass, relative to colon mass was determined in male C57BL mice. A similar protocol was used to that described above in Example 10 except that 200 nmol/kg of each compound was administered per day. Thus, individual groups (n=6-10) of mice were given 200 nmol/kg of each compound, s.c, once daily for three consecutive days. Other groups of animals were given either an equimolar dose of [[…]]GLP-2 (reference compound) or vehicle (phosphate buffered saline, pH 7.4; negative controls) in the same dosing regimen. Twenty-four hours after the last dose of compound the mice were sacrificed and the stomach, small intestine and the colon emptied and weighed.

male C57BL mice [2] = assay: In vivo stimulation of stomach growth, 200 nmol/kg (Example 12)
Experimental: The effects of the test compounds according to the invention were determined based on the ability of the peptides to selectively increase stomach mass, relative to vehicle control. The ability of the present compounds (ZP2395, ZP2396, ZP2400, ZP2412, ZP2394 and ZP2401) to selectively stimulate stomach mass, relative to colon mass was determined in male C57BL mice. Individual groups (n=6-10) of mice were given 200 nmol/kg of each compound, s.c, once daily for three consecutive days. For comparison purposes other groups of animals were given either an equimolar dose of [[…]]GLP-2 or vehicle (phosphate buffered saline, pH 7.4) in the same dosing regimen. Twenty-four hours after the last dose of compound had been given the mice were sacrificed and the stomach and small intestine (from the pylorus to the ileocaecal junction) emptied and weighed. To correct for slight difference in body weight (BW), the organ mass of the stomach is presented relative to BW. […] To evaluate the differential growth pattern induced by ZP compounds, compared to [[…]]GLP-2, on the stomach, the stomach-colon sensitivity index of compound X was calculated as: (Stomach/Colon)x/Stomach/(Colon)[[…]]GLP-2% Compounds with a stomach/colon sensitivity greater than or equal to 1.05 were considered relatively selective for the stomach.

[3] = 200 nmol/kg s.c. once daily for 3 days
[4] = colon weight relative to body weight, relative to ZP1559
[5] = small intestine weight relative to body weight, relative to ZP1559
[6] = 200 nmol/kg s.c. once daily for 3 days, relative to 1559

Row | Substance | Colon-BW, compared to 1559 in % (male C57BL mice [1]; [3]) | SI-BW, compared to 1559 in % (male C57BL mice [1]; [3]) | Sensitivity index Si/Colon (male C57BL mice [1]; [3]) | Colon-BW, compared to 1559 in % (male C57BL mice [1]; [4]) | SI-BW, compared to 1559 in % (male C57BL mice [1]; [5]) | Preferential stimulation of epithelial growth in the stomach (summary) (male C57BL mice [2]; [3]) | Selectivity for stomach mass relative to colon mass (FIG. 7) (male C57BL mice [2]; [3]) | Sto-BW, compared to 1559 in % (male C57BL mice [2]; [3]) | Sensitivity index Stomach/Co (male C57BL mice [2]; [6]) | Sensitivity index Stomach/Co (male C57BL mice [2]; ratio Stomach-BW / Colon-BW) | Organ selectivity (FIG. 8, unselective compounds) (male C57BL mice [1]; [3]) | Preferential stimulation of epithelial growth in the small intestine (summary) (male C57BL mice [1]; [3]) | Selectivity for small intestinal mass relative to colon mass (FIG. 6) (male C57BL mice [1]; [3])
1 | H-HGEGSFSDELLTILELLAAADFIAWLIATKITDKKKKKK-NH2 [ZP2412] | 99% | 94% | 0.95 | 99% | 94% | preferentially stimulating epithelial growth in the stomach | selectively increase stomach mass, relative to colon mass | 106% | 1.07 | 1.07 | – | – | –
2 | H-HGEGSFSDELFTILEFLAASDFISWLISTKITD-NH2 [ZP2401] | 88% | 98% | 1.11 | 88% | 98% | preferentially stimulating epithelial growth in the stomach | selectively increase stomach mass, relative to colon mass | 107% | 1.22 | 1.22 | – | – | –
3 | H-HGEGSFSDELATILESLAAADFIAWLIATKITDKKKKKK-NH2 [ZP2415] | 106% | 106% | 1.00 | – | – | – | – | 100% | 0.94 | – | unselective for the small intestine, colon or stomach | – | –
4 | H-HGEGSFSDELATILEALAAADFISWLIATKITD-NH2 [ZP2418] | 100% | 117% | 1.17 | 100% | 117% | – | – | 91% | 0.91 | 0.91 | – | preferentially stimulating epithelial growth in the small intestine | selectively increase small intestinal mass, relative to colon mass
5 | H-HGEGSFSDELATILESLAAADFISWLIATKITDKKKKKK-NH2 [ZP2413] | 117% | 116% | 0.99 | – | – | – | – | 108% | 0.92 | – | unselective for the small intestine, colon or stomach | – | –
6 | H-HGEGSFSDELSTILEALAASDFISWLISTKITD-NH2 [ZP2398] | 97% | 108% | 1.11 | 97% | 108% | – | – | 102% | 1.05 | 1.05 | – | preferentially stimulating epithelial growth in the small intestine | selectively increase small intestinal mass, relative to colon mass
7 | H-HGEGSFSDELATILEALAAADFIAWLISTKITDKKKKKK-NH2 [ZP2384] | 118% | 128% | 1.08 | 118% | 128% | – | – | 100% | 0.85 | 0.85 | – | preferentially stimulating epithelial growth in the small intestine | selectively increase small intestinal mass, relative to colon mass
8 | H-HGEGSFSDELATILEALAAADFIAWLIATKITDKKKKKK-NH2 [ZP2402] | 113% | 110% | 0.97 | – | – | – | – | 102% | 0.90 | – | unselective for the small intestine, colon or stomach | – | –
9 | H-HGEGSFSDELATILESLAAADFIAWLIATKITD-NH2 [ZP2414] | 106% | 105% | 0.99 | – | – | – | selectively increase stomach mass, relative to colon mass | 110% | 1.04 | – | unselective for the small intestine, colon or stomach | – | –
10 | H-HGEGSFSDELKTILEKLAAKDFIKWLIKTKITDKKKKKK-NH2 [ZP2395] | 97% | 98% | 1.01 | 97% | 98% | preferentially stimulating epithelial growth in the stomach | selectively increase stomach mass, relative to colon mass | 113% | 1.16 | 1.16 | – | – | –
11 | H-HGEGSFSDELLTILELLAASDFISWLISTKITDKKKKKK-NH2 [ZP2394] | 96% | 105% | 1.09 | 96% | 105% | preferentially stimulating epithelial growth in the stomach | selectively increase stomach mass, relative to colon mass | 109% | 1.14 | 1.14 | – | – | –
12 | H-HGEGSFSDELATILEALAAADFIAWLISTKITD-NH2 [ZP2397] | 101% | 122% | 1.21 | 101% | 122% | – | – | 109% | 1.08 | 1.08 | – | preferentially stimulating epithelial growth in the small intestine | selectively increase small intestinal mass, relative to colon mass
13 | H-HGEGSFSDELKTILESLAAADFIEWLIQTKITDKKKKKK-NH2 [ZP2379] | 97% | 88% | 0.91 | – | – | – | – | 99% | 1.02 | – | unselective for the small intestine, colon or stomach | – | –
14 | H-HGEGSFSDELATILESLAASDFISWLISTKITD-NH2 [ZP2399] | 103% | 119% | 1.16 | 103% | 119% | – | – | 115% | 1.12 | 1.12 | – | preferentially stimulating epithelial growth in the small intestine | selectively increase small intestinal mass, relative to colon mass
15 | H-HGEGSFSDELSTILEALAAADFIAWLIATKITD-NH2 [ZP2420] | 101% | 112% | 1.11 | 101% | 112% | – | – | 90% | 0.89 | 0.89 | – | preferentially stimulating epithelial growth in the small intestine | selectively increase small intestinal mass, relative to colon mass
16 | H-HGEGSFSDELSTILEALAAADFIAWLIATKITDKKKKKK-NH2 [ZP2404] | 115% | 114% | 0.99 | – | – | – | – | 103% | 0.90 | – | unselective for the small intestine, colon or stomach | – | –
17 | H-HGEGSFSDELLTILELLAALDFIAWLIATKITDKKKKKK-NH2 [ZP2416] | 92% | 89% | 0.97 | – | – | – | selectively increase stomach mass, relative to colon mass | 96% | 1.04 | – | unselective for the small intestine, colon or stomach | – | –
